In patent US11384055B2 (BIOMARIN PHARMACEUTICAL INC., priority 2017, dated 2022):

Molecular target: T1, Human GO (Homo sapiens, UniProt Q9UJM8)
T1 construct: purchased Novus Biologicals NBP1-72412
T1 sequence (Q9UJM8 1-370): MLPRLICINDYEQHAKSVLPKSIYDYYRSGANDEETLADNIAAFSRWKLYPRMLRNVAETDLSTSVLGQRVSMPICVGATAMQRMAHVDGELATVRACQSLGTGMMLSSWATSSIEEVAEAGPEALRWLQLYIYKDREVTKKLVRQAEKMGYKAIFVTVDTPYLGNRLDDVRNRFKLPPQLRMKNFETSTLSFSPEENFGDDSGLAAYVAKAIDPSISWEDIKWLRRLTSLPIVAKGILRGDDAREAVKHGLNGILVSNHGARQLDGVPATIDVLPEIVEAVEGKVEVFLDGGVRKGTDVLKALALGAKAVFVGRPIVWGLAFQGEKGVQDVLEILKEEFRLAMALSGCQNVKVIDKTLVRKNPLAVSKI
Assay: GO enzymatic assay (coupled fluorescence/HRP assay, glycolate substrate)
Assay type: biochemical
Conditions: Table 2; read-out: Range (range of IC50 values calculated from the enzymatic assays)
In short: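 Human GO incubated with glycolate substrate in 50 mM potassium phosphate, pH 7, with varying inhibitor concentrations. Activity read by coupled HRP fluorescence. IC50 taken from variable-slope sigmoidal dose-response fits of percent inhibition relative to DMSO control.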

IC50	Compound
< 100 nM	O=C(O)c1[nH]nnc1S[C@H]1CC[C@@H](c2ccc(C(F)(F)F)cc2)CC1 [Compound 332, 4-(((cis)-4-(4-(trifluoromethyl)phenyl)cyclohexyl)thio)-1H-1,2,3-triazole-5-carboxylic acid]
< 100 nM	CN(Cc1nn[nH]c1C(=O)O)c1ccc(-c2ccc(OC(F)(F)F)cc2)cc1 [Compound 333, 4-((methyl(4′-(trifluoromethoxy)-[1,1′-biphenyl]-4-yl)amino)methyl)-1H-1,2,3-triazole-5-carboxylic acid 2,2,2-trifluoroacetate]
< 100 nM	O=C(O)c1[nH]nnc1-c1cc(OCC2CC2)cc(C(F)(F)F)c1 [Compound 334, 4-(3-(cyclopropylmethoxy)-5-(trifluoromethyl)phenyl)-1H-1,2,3-triazole-5-carboxylic acid]
1000 to 10000 nM	O=C(O)c1[nH]nnc1[S+]([O-])c1ccc(Cl)c(OCC2CCCCC2)c1 (stereo not shown) [Compound 335, 4-((4-chloro-3-(cyclohexylmethoxy)phenyl)sulfinyl)-1H-1,2,3-triazole-5-carboxylic acid]
< 100 nM	O=C(O)c1[nH]nnc1Sc1ccc(Cl)c(OCC2CCCCC2)c1 [Compound 336, 4-((4-chloro-3-(cyclohexylmethoxy)phenyl)thio)-1H-1,2,3-triazole-5-carboxylic acid]
< 100 nM	O=C(O)c1[nH]nnc1S[C@H]1CC[C@@H](c2cc(Cl)cc(OC(F)(F)F)c2)CC1 [Compound 337, 4-(((cis)-4-(3-chloro-5-(trifluoromethoxy)phenyl)cyclohexyl)thio)-1H-1,2,3-triazole-5-carboxylic acid]
< 100 nM	O=C(O)c1[nH]nnc1SC1CCN(c2cc(Cl)cc(OC(F)(F)F)c2)CC1 [Compound 338, 4-((1-(3-chloro-5-(trifluoromethoxy)phenyl)piperidin-4-yl)thio)-1H-1,2,3-triazole-5-carboxylic acid]
< 100 nM	O=C(O)c1[nH]nnc1Sc1ccc(N2CCC(F)(F)CC2)cc1 [Compound 339, 4-((4-(4,4-difluoropiperidin-1-yl)phenyl)thio)-1H-1,2,3-triazole-5-carboxylic acid 2,2,2-trifluoroacetate]
< 100 nM	O=C(O)c1[nH]nnc1SC1CCC(c2cccc(N3CCCCC3)c2)CC1 (stereo not shown) [Compound 340, 4-((4-(3-(piperidin-1-yl)phenyl)cyclohexyl)thio)-1H-1,2,3-triazole-5-carboxylic acid 2,2,2-trifluoroacetate]
< 100 nM	CN1CCN(c2ccc([C@H]3CC[C@@H](Sc4nn[nH]c4C(=O)O)CC3)cc2)CC1 [Compound 341, 4-(((cis)4-(4-(4-methylpiperazin-1-yl)phenyl)cyclohexyl)thio)-1H-1,2,3-triazole-5-carboxylic acid 2,2,2-trifluoroacetate]
< 100 nM	O=C(O)c1[nH]nnc1Sc1ccc(-c2ccc(N3CCCCC3)cc2)c(Cl)c1 [Compound 342, 4-((2-chloro-4′-(piperidin-1-yl)-[1,1′-biphenyl]-4-yl)thio)-1H-1,2,3-triazole-5-carboxylic acid 2,2,2-trifluoroacetate]
< 100 nM	O=C(O)c1[nH]nnc1Sc1cc(OCC2CCCC2)ccc1Cl [Compound 343, 4-((2-chloro-5-(cyclopentylmethoxy)phenyl)thio)-1H-1,2,3-triazole-5-carboxylic acid]
< 100 nM	N#Cc1ccc(N2CCC(Sc3nn[nH]c3C(=O)O)CC2)cc1 [Compound 344, 4-((1-(4-cyanophenyl)piperidin-4-yl)thio)-1H-1,2,3-triazole-5-carboxylic acid 2,2,2-trifluoroacetate]
< 100 nM	O=C(O)c1[nH]nnc1S[C@H]1CC[C@@H](c2ccc(Cl)c(Cl)c2)CC1 [Compound 345, 4-(((cis)-4-(3,4-dichlorophenyl)cyclohexyl)thio)-1H-1,2,3-triazole-5-carboxylic acid 2,2,2-trifluoroacetate]
< 100 nM	O=C(O)c1[nH]nnc1SC1CCN(c2ccc(OC(F)(F)F)c(Cl)c2)CC1 [Compound 346, 4-((1-(3-chloro-4-(trifluoromethoxy)phenyl)piperidin-4-yl)thio)-1H-1,2,3-triazole-5-carboxylic acid]
< 100 nM	O=C(O)c1[nH]nnc1S[C@H]1CC[C@@H](c2ccc(N3CCCC3)cc2)CC1 [Compound 347, 4-(((cis)-4-(4-(pyrrolidin-1-yl)phenyl)cyclohexyl)thio)-1H-1,2,3-triazole-5-carboxylic acid 2,2,2-trifluoroacetate]
< 100 nM	O=C(O)c1[nH]nnc1S[C@H]1CC[C@@H](c2ccc(OC(F)(F)F)cc2)CC1 [Compound 348, 4-(((cis)-4-(4-(trifluoromethoxy)phenyl)cyclohexyl)thio)-1H-1,2,3-triazole-5-carboxylic acid]

IC50	Compound
< 100 nM	CC1CCCCN1c1ccc(-c2ccc(Sc3nn[nH]c3C(=O)O)cc2)cc1 (stereo not shown) [Compound 349, 4-((4′-(2-methylpiperidin-1-yl)-[1,1′-biphenyl]-4-yl)thio)-1H-1,2,3-triazole-5-carboxylic acid 2,2,2-trifluoroacetate]
< 100 nM	O=C(O)c1[nH]nnc1CSC1CCN(c2cc(Cl)cc(Cl)c2)CC1 [Compound 350, 4-(((1-(3,5-dichlorophenyl)piperidin-4-yl)thio)methyl)-1H-1,2,3-triazole-5-carboxylic acid 2,2,2-trifluoroacetate]
100 to 1000 nM	O=C(O)c1[nH]nnc1Sc1cccc(OC2CCCC2)c1 [Compound 351, 4-((3-(cyclopentyloxy)phenyl)thio)-1H-1,2,3-triazole-5-carboxylic acid 2,2,2-trifluoroacetate]
< 100 nM	N#Cc1ccc([C@H]2CC[C@@H](Sc3nn[nH]c3C(=O)O)CC2)cc1 [Compound 352, 4-(((cis)-4-(4-cyanophenyl)cyclohexyl)thio)-1H-1,2,3-triazole-5-carboxylic acid]
< 100 nM	O=C(O)c1[nH]nnc1Oc1ccc(Cl)c(OCC2CCCC2)c1 [Compound 353, 4-(4-chloro-3-(cyclopentylmethoxy)phenoxy)-1H-1,2,3-triazole-5-carboxylic acid 2,2,2-trifluoroacetate]
< 100 nM	O=C(O)c1[nH]nnc1OC1CCN(c2cc(Cl)cc(OC(F)(F)F)c2)CC1 [Compound 354, 4-((1-(3-chloro-5-(trifluoromethoxy)phenyl)piperidin-4-yl)oxy)-1H-1,2,3-triazole-5-carboxylic acid]
< 100 nM	O=C(O)c1[nH]nnc1O[C@H]1CC[C@@H](c2cc(Cl)cc(OC(F)(F)F)c2)CC1 [Compound 355, 4-(((cis)-4-(3-chloro-5-(trifluoromethoxy)phenyl)cyclohexyl)oxy)-1H-1,2,3-triazole-5-carboxylic acid]
< 100 nM	O=C(O)c1[nH]nnc1O[C@H]1CC[C@@H](c2ccc(N3CCCC3)cc2)CC1 [Compound 356, 4-(((cis)-4-(4-(pyrrolidin-1-yl)phenyl)cyclohexyl)oxy)-1H-1,2,3-triazole-5-carboxylic acid 2,2,2-trifluoroacetate]
< 100 nM	O=C(O)c1[nH]nnc1Oc1cc(OCC2CCCC2)ccc1Cl [Compound 357, 4-(2-chloro-5-(cyclopentylmethoxy)phenoxy)-1H-1,2,3-triazole-5-carboxylic acid]
< 100 nM	O=C(O)c1[nH]nnc1Oc1cc(Cl)cc(OC(F)(F)F)c1 [Compound 358, 4-(3-chloro-5-(trifluoromethoxy)phenoxy)-1H-1,2,3-triazole-5-carboxylic acid]
< 100 nM	N#Cc1ccc(N2CCC(Oc3nn[nH]c3C(=O)O)CC2)cc1 [Compound 359, 4-((1-(4-cyanophenyl)piperidin-4-yl)oxy)-1H-1,2,3-triazole-5-carboxylic acid 2,2,2-trifluoroacetate]
< 100 nM	O=C(O)c1[nH]nnc1O[C@H]1CC[C@@H](c2ccc(OC(F)(F)F)c(Cl)c2)CC1 [Compound 360, 4-(((cis)-4-(3-chloro-4-(trifluoromethoxy)phenyl)cyclohexyl)oxy)-1H-1,2,3-triazole-5-carboxylic acid]
< 100 nM	O=C(O)c1[nH]nnc1OC1CCN(c2ccc(OC(F)(F)F)c(Cl)c2)CC1 [Compound 361, 4-((1-(3-chloro-4-(trifluoromethoxy)phenyl)piperidin-4-yl)oxy)-1H-1,2,3-triazole-5-carboxylic acid]
< 100 nM	O=C(O)c1[nH]nnc1Oc1ccc(Cl)c(OCc2ccc(F)cc2)c1 [Compound 362, 4-(4-chloro-3-((4-fluorobenzyl)oxy)phenoxy)-1H-1,2,3-triazole-5-carboxylic acid]
< 100 nM	NC(=O)c1ccc([C@H]2CC[C@@H](Oc3nn[nH]c3C(=O)O)CC2)cc1 [Compound 363, 4-(((cis)-4-(4-carbamoylphenyl)cyclohexyl)oxy)-1H-1,2,3-triazole-5-carboxylic acid 2,2,2-trifluoroacetate]
< 100 nM	NC(=O)c1ccc([C@H]2CC[C@H](Oc3nn[nH]c3C(=O)O)CC2)cc1 [Compound 364, 4-(((trans)-4-(4-carbamoylphenyl)cyclohexyl)oxy)-1H-1,2,3-triazole-5-carboxylic acid 2,2,2-trifluoroacetate]
< 100 nM	N#Cc1ccc([C@H]2CC[C@@H](Oc3nn[nH]c3C(=O)O)CC2)cc1 [Compound 365, 4-(((cis)-4-(4-cyanophenyl)cyclohexyl)oxy)-1H-1,2,3-triazole-5-carboxylic acid]
